Experimental data reported in patent publication EP2891491A1, “Use of (r)-phenylpiracetam for the treatment of sleep disorders” (Merz Pharma GmbH & Co. KGaA, priority 2014, dated 2015).

What was measured:
[1] = brain microdialysis: concentration of (R)-phenylpiracetam in the brain after i.p. application; assay type: in vivo, rats; conditions: rat
Experimental: EXAMPLE 3: Assessment of the concentration of (R)-phenylpiracetam in the brain using brain microdialysis - Figs. 2, 14, 15
Naive adult male Sprague-Dawley rats (240-360 g, Janvier, France) were used for the study kept under standard conditions. All experiments were conducted during the light period of the day-night cycle.
Siliconized guide cannula (MAB 6.14.IC) (MAB, Stockhom, Sweden) were implanted unilaterally in pentobarbital anaesthetized animals aiming at the caudatus putamen (CPu; AP: +0.1, LM: ± 2.6, DV: -3.2 mm relative to bregma; -3.3 mm interaural) according to the atlas of Paxinos and Watson (loc. cit.). Rats were given at least 3 days to recover from surgery before starting microdialysis experiments.
Microdialysis experiments were performed in the home cage of the animal. A microdialysis probe (MAB 6.14.4.; 4 mm exposed membrane length, polyethersulfone (PES) membrane; MAB, Stockholm, Sweden) was lowered through the guide cannula into the CPu (ventral position of probe tip with reference to the skull: -7.2 mm) ca. 12 hours before the sampling and left in place for the whole testing period.
The probes were perfused with aCSF at a flow rate of 2 µl/min using a CMA 102 perfusion pump (CMA, Solna, Sweden). The composition of the aCSF was 147 mM Na^+, 2.7 mM K^+, 1.2 mM Ca^2+, 0.85 mM Mg^2+, 0.04 mM ascorbic acid. […]

[2] = tested on: extracellular dopamine levels in rat striatum; assay: brain microdialysis: extracellular dopamine levels in rat striatum; assay type: in vivo, rats; conditions: 100 mg/kg i.p.
Experimental: EXAMPLE 2: Assessment of (R)-phenylpiracetam on extracellular dopamine levels in rat striatum using brain microdialysis - Fig. 1
(R)-Phenylpiracetam was dissolved in saline and injected intraperitoneally (i.p).
Adult male Sprague-Dawley rats (n = 5, ∼300 g; Harlan, The Netherlands) were used for the experiments. After surgery animals were housed individually (cages 30 cm x 30 cm x 40 cm) with food and water was ad libitum available at standard conditions. The post-surgery interval for recovery was minimally 48 h.
Rats were anesthetized using isoflurane (2%, 800 ml/min O2), and placed in a stereotaxic frame (Kopf instruments, USA). […]
Concentrations of DA and DOPAC were determined in the same sample, by HPLC separation and electrochemical detection. DA and DOPAC were detected electrochemically using a potentiostate (Antec Leyden, model Intro, the Netherlands) fitted with a glassy carbon electrode set at +500 mV vs. Ag/AgCl (Antec Leyden, the Netherlands). Data was analyzed by Chromatography Data System (Shimadzu, class-vp, Japan) software. Concentrations were quantified by the external standard method.
After transmitter levels were stabilized, four consecutive pre-treatment microdialysis samples with less than 50% variation were taken as baseline and their mean was set at 100%. […] Transmitter concentration in each fraction was expressed as % ± SEM (standard error mean) of baseline.

[3] = model for depression; cited from earlier work
[4] = in vivo; cited from earlier work

For `NC(=O)CN1C[C@@H](c2ccccc2)CC1=O` [(R)-phenylpiracetam], the “free concentration in extracellular fluid in the brain” value ([1]; 50 mg/kg) was 20 µM, the “free concentration in extracellular fluid in the brain” value ([1]; 100 mg/kg) was 50 µM and the “concentration of dopamine in the striatum” value [2] was “increases extracellular dopamine levels”. For the same molecule, the “potency in the forced swim test” value [3] was “only slightly more potent than (S)-phenylpiracetam” and the “memory function in the passive avoidance test” value [4] was “enhanced memory function significantly better compared to (S)-phenylpiracetam”.
